# Measurements: patent US9458104B2 (priority 2012, dated 2016)
# Columns and labels:
# [1] = target: T1, RORγ ligand binding domain (LBD) (Homo sapiens, UniProt P51449); assay: TR-FRET Activity Assay (ligand sensing assay, RORγ-LBD / coactivator peptide interaction); assay type: biochemical
# T1 construct: made in house; host or cells: E. coli BL-21 (BL3), vector pDEST15
# T1 sequence (P51449 269-508 limits assumed): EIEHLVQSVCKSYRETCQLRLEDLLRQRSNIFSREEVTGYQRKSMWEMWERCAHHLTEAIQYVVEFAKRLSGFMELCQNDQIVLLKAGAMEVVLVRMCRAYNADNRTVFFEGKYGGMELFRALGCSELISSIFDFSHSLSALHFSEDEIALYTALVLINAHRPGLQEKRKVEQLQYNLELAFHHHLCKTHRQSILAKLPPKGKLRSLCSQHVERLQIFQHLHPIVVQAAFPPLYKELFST
# Summary of the method: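 GST-RORγ LBD expressed in bacteria, 20–60 ng/well, with biotinylated coactivator peptide 200–600 nM, streptavidin-APC and Eu-anti-GST. Buffer: 20 mM Tris-HCl pH 6.8, 60 mM KCl, 1 mM DTT, 5 mM MgCl2, BSA; 1% DMSO. LANCE TR-FRET 665/615 nm ratio; IC50 from four-parameter logistic fit.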
# RORγ = target: T2, RORγ (UniProt P51449); assay type: cell-based; details: 293T cells, 16 h; for pIC50 (FF): firefly (FF) luciferase; for pIC50 (REN): renilla normalised (RENnorm) luciferase
# T2 construct: hRORg-LBD|aa259-518|NP_005051.2; hRORgt|aa1-497|NP_001001523 (RORg, t isoform, 497aa); mRORg-LBD|aa264-516|NP_035411
# T2 sequence (P51449 1-518): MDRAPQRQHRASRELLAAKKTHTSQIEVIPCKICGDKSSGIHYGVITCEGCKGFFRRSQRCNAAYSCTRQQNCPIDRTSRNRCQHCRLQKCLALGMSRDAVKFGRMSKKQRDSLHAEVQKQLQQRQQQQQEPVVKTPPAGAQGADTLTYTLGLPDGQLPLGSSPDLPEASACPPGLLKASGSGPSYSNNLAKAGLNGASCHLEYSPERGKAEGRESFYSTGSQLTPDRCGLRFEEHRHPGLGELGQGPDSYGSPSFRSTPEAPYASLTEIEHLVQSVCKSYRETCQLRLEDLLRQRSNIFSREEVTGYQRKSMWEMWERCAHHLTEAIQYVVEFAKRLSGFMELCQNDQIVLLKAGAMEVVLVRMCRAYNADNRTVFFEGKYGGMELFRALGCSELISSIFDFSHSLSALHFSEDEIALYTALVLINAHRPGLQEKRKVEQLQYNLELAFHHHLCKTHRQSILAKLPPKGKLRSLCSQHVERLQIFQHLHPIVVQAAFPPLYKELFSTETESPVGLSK
Compound,IC50 [1],pIC50 (FF) (RORγ),pIC50 (REN) (RORγ)
"Cc1c(C(=O)N[C@H]2C[C@H](C(=O)O)C2)cn(-c2cc(C(C)(C)C)cc(C3(C)CC3)c2)c1[S+]([O-])C1CCCCC1 (stereo partly drawn) [Example 22, trans-3-(1-(3-(tert-Butyl)-5-(1-methylcyclopropyl)phenyl)-5-(cyclohexylsulfinyl)-4-methyl-1H-pyrrole-3-carboxamido)cyclobutanecarboxylic acid]",2000 nM,7.1,7.1
"Cc1c(C(=O)N[C@H]2C[C@H](C(=O)O)C2)cn(-c2cc(C(C)(C)C)cc(C3(C)CC3)c2)c1S(=O)(=O)C1CCCCC1 [Example 23, trans-3-(1-(3-(tert-Butyl)-5-(1-methylcyclopropyl)phenyl)-5-(cyclohexylsulfonyl)-4-methyl-1H-pyrrole-3-carboxamido)cyclobutanecarboxylic acid]",1580 nM,6.4,6.5
"Cc1c(C(=O)NCCC(C)(C)C(=O)O)c(F)n(-c2ccc(S(=O)(=O)NC(C)(C)C)c(C(F)(F)F)c2)c1CC1CCCCC1 [Example 25, 4-(1-(4-(N-(tert-Butyl)sulfamoyl)-3-(trifluoromethyl)phenyl)-5-(cyclohexylmethyl)-2-fluoro-4-methyl-1H-pyrrole-3-carboxamido)-2,2-dimethylbutanoic acid]",631 nM,8.3,8.3
"Cn1c(C(=O)N[C@H]2C[C@H](C(=O)O)C2)cc(-c2cc(C(C)(C)C)cc(C3(C)CC3)c2)c1C(=O)C1CCCCC1 [Example 26, trans-3-(4-(3-(tert-Butyl)-5-(1-methylcyclopropyl)phenyl)-5-(cyclohexanecarbonyl)-1-methyl-1H-pyrrole-2-carboxamido)cyclobutanecarboxylic acid]",501 nM,8.5,8.5
"CC(C)(C)c1cc(-c2cc(C(=O)N[C@H]3C[C@H](C(=O)O)C3)nn2CC2CCCCC2)cc(C2(C)CC2)c1 [Example 100, (trans)-3-(5-(3-(tert-Butyl)-5-(1-methylcyclopropyl)phenyl)-1-(cyclohexylmethyl)-1H-pyrazole-3-carboxamido)cyclobutanecarboxylic acid]",501 nM,6.9,7.0
CCNC(=O)c1cc(CC2CCCCC2)n(-c2cc(C(C)(C)C)cc(C(C)(C)C)c2)n1 [Example 102/1],631 nM,5.9,6.0
"CC1(CNC(=O)c2nn(-c3cc(C(C)(C)C)nc(C(C)(C)C)c3)c(CC3CCCCC3)c2Cl)COC1 [Example 105, 4-Chloro-5-(cyclohexylmethyl)-1-(2,6-di-tert-butylpyridin-4-yl)-N-((3-methyloxetan-3-yl)methyl)-1H-pyrazole-3-carboxamide]",6310 nM,< 4.7,< 4.7
"CC(C)(C)NS(=O)(=O)c1ccc(-c2c(Cl)c(C(=O)N[C@H]3C[C@H](C(=O)O)C3)nn2CC2CCCCC2)cc1C(F)(F)F [Example 108, trans-3-(5-(4-(N-(tert-Butyl)sulfamoyl)-3-(trifluoromethyl)phenyl)-4-chloro-1-(cyclohexylmethyl)-1H-pyrazole-3-carboxamido)cyclobutanecarboxylic acid]",501 nM,6.4,6.4
"CC(C)(C)NS(=O)(=O)c1ccc(-c2c(F)c(C(=O)NCCC(C)(C)C(=O)O)nn2CC2CCCCC2)cc1C(F)(F)F [Example 109, 4-(5-(4-(N-(tert-Butyl)sulfamoyl)-3-(trifluoromethyl)phenyl)-1-(cyclohexylmethyl)-4-fluoro-1H-pyrazole-3-carboxamido)-2,2-dimethylbutanoic acid]",501 nM,6.7,6.8
"CC(C)(C)NS(=O)(=O)c1ccc(-c2cc(C(=O)N[C@H]3C[C@H](C(=O)O)C3)nn2CC2CCCCC2)c(Cl)c1Cl [Example 112, trans-3-(5-(4-(N-(tert-Butyl)sulfamoyl)-2,3-dichlorophenyl)-1-(cyclohexylmethyl)-1H-pyrazole-3-carboxamido)cyclobutanecarboxylic acid]",316 nM,6.9,6.9
CC(C)(C)NS(=O)(=O)c1ccc(-c2cc(C(=O)NC3CCS(=O)(=O)CC3)nn2CC2CCCCC2)c(Cl)c1Cl [Example 112/1],501 nM,7.5,7.6
"Cc1c(C(=O)N[C@H]2C[C@H](C(=O)O)C2)cn(-c2cc(C(C)(C)C)cc(C3(C)CC3)c2)c1C(=O)c1ccccc1 [Example 301, (trans)-3-(5-Benzoyl-1-(3-(tert-butyl)-5-(1-methylcyclopropyl)phenyl)-4-methyl-1H-pyrrole-3-carboxamido)cyclobutanecarboxylic acid]",501 nM,6.7,6.8
"CCS(=O)(=O)c1ccc(CNC(=O)c2cc(-c3ccc(S(=O)(=O)NC(C)(C)C)c(C(F)(F)F)c3)n(CC3CCCCC3)c2C)cc1 [Example 302, 5-(4-(N-(tert-Butyl)sulfamoyl)-3-(trifluoromethyl)phenyl)-1-(cyclohexylmethyl)-N-(4-(ethylsulfonyl)benzyl)-2-methyl-1H-pyrrole-3-carboxamide]",6.31 nM,7.6,7.8
Cc1c(C(=O)NC2CCOCC2)cc(-c2ccc(S(=O)(=O)NC(C)(C)C)c(C(C)(C)C)c2)n1CC(C)(C)C [Example 302/1],1580 nM,6.3,6.4
"CC(C)(C)c1cc(-c2cc(C(N)=O)[nH]c2CC2CCCCC2)cc(C(C)(C)C)c1 [Example 303, 5-(Cyclohexylmethyl)-4-(3,5-di-tert-butylphenyl)-1H-pyrrole-2-carboxamide]",501 nM,< 4.7,< 4.7
"Cn1c(C(N)=O)cc(-c2cc(C(C)(C)C)cc(C(C)(C)C)c2)c1CC1CCCCC1 [Example 304, 5-(Cyclohexylmethyl)-4-(3,5-di-tert-butylphenyl)-1-methyl-1H-pyrrole-2-carboxamide]",126 nM,6.1,6.1
"Cc1c(C(N)=O)cn(-c2cc(C(C)(C)C)cc(C(C)(C)C)c2)c1CC1CCCCC1 [Example 305, 5-(Cyclohexylmethyl)-1-(3,5-di-tert-butylphenyl)-4-methyl-1H-pyrrole-3-carboxamide]",200 nM,6.3,6.3
"CC(C)(C)c1cc(-c2nc(C(N)=O)nn2CC2CCCCC2)cc(C(C)(C)C)c1O [Example 306, 1-(Cyclohexylmethyl)-5-(3,5-di-tert-butyl-4-hydroxyphenyl)-1H-1,2,4-triazole-3-carboxamide]",794 nM,5.9,6.0
"CC(C)(C)c1cc(-c2nc(C(=O)NC3CC3)nn2CC2CCCCC2)cc(C(C)(C)C)c1 [Example 307, 1-(Cyclohexylmethyl)-N-cyclopropyl-5-(3,5-di-tert-butylphenyl)-1H-1,2,4-triazole-3-carboxamide]",794 nM,5.9,6.1
"Cc1cc(-c2nc(C(N)=O)nn2CC2CCCCC2)cc(C(C)(C)C)c1O [Example 308, 5-(3-(tert-Butyl)-4-hydroxy-5-methylphenyl)-1-(cyclohexylmethyl)-1H-1,2,4-triazole-3-carboxamide]",7940 nM,6.0,5.9
